Experiment [1] has as its system human mesenchymal stem cells. In words: Differentiation of human mesenchymal stem cells into adipocytes, Oil Red O staining of accumulated intracellular lipids. The class given is cell-based. To be noted: cholecystokinin 100 nM in differentiation induction medium; compared to cholecystokinin-free control; FIG. 1. The protocol:
Human mesenchymal stem cells were incubated in a 24-well culture plate until the cells became confluent. Then, the medium was exchanged with a differentiation induction medium prepared by adding cholecystokinin (100 nM) to high-glucose DMEM medium supplemented with insulin, dexamethasone, isobutylmethylxanthine, indomethacin, antibiotic and 10% fetal bovine serum, and incubation was continued for 3 days. For control, a cholecystokinin-free differentiation induction medium was used. After incubation was conducted for 3 days in a high-glucose DMEM medium (adipocyte maintenance medium) supplemented only with insulin, antibiotic and 10% fetal bovine serum, the same treatments (the induction and the maintenance, respectively, for 3 days) were repeated. Accumulated intracellular lipids were visualized by staining with Oil Red 0 dye.

Experiment [2] has as its system human mesenchymal stem cells. In words: Osteoblast differentiation induction from human mesenchymal stem cells, accumulated calcium level per well (Calcium C-Test). The class given is cell-based. To be noted: oncostatin M added (10 ng/ml); irrespective of presence or absence of FBS; compared to 10% FBS-containing differentiation medium without oncostatin M; FIG. 2. As for the experimental part: Human mesenchymal stem cells were purchased from Cambrex, Inc. Dulbecco's Modified Eagle Medium (DMEM, Invitrogen) containing 1.0 g/l of glucose and supplemented with 10% fetal bovine serum (Stem Cell Technologies), 2 mM L-glutamine (Invitrogen), 100 U/ml penicillin and 100 μg/ml streptomycin was used as a maintenance medium. The maintenance medium supplemented with 0.1 μM dexamethasone, 0.05 mM ascorbic acid and 10 mM β-glycerophosphate (=10% FBS-containing differentiation medium) or fetal bovine serum-free maintenance medium supplemented with the three components above was used as a differentiation medium (=serum-free differentiation medium). […] Subsequently, the medium was exchanged every 4 days, and the accumulated calcium level per well was quantified on day 10 of the incubation (Calcium C-Test, Wako Pure Chemical).

In the case of “cholecystokinin (DYMGWMDF) [ligand of the cholecystokinin receptor]”, in experiment [1], the “lipid accumulation (accumulated intracellular lipids, Oil Red O staining) compared to control” value was “lipid accumulation is enhanced”.

B1: oncostatin M (protein, UniProt P13725 26-221, looked up)
Oncostatin-M: AAIGSCSKEYRVLLGQLQKQTDLMQDTSRLLDPYIRIQGLDVPKLREHCRERPGAFPSEETLRGLGRRGFLQTLNATLGCVLHRLADLEQRLPKAQDLERSGLNIEDLEKLQMARPNILGLRNNIYCMAQLLDNSDTAEPTKAGRGASQPPTPTPASDAFQRKLEGCRFLHGYHRFMHSVGRVFSKWGESPNRSRR
notes: differentiation induction factor for osteoblasts from human mesenchymal stem cells in serum-free medium
B1: the “accumulation of calcium per well on day 10 of the incubation” value in experiment [2] is “marked accumulation of calcium was observed”.

Source of the values: patent publication US20090232771A1, “Method of controlling cell functions” (Takeda Pharmaceutical Company Limited, priority 2004, published 2009).
